The results in this text go back to patent US7371379B2, “Dosages for treatment with anti-ErbB2 antibodies” (Genentech, Inc., priority 1999, dated 2008).

For series [1], the system named is ErbB2-overexpressing metastatic breast cancer. The experiment in a line: clinical study of chemotherapy with or without HERCEPTIN (Example 1). Format: in vivo, human. From the text: Eligibility Criteria Patients had to fulfill all of the following criteria to be eligible for study admission: • Metastatic breast cancer • Overexpression of the ErbB2 (HER2) oncogene (2+ to 3+ as determined by immunohistochemistry or fluorescence in situ hybridization (FISH). [Tumor expression of ErbB2 can be determined by immunohistochemical analysis, as previously described (Slamon et al., [1987] and [1989], supra), of a set of thin sections prepared from the patient's paraffin-archived tumor blocks. The primary detecting antibody used is murine 4D5 MAb, which has the same CDRs as the humanized antibody used for the treatment.
Beginning on day 7, patients received weekly administration of 2 mg/kg antibody (i.v.) over a 90-minute period.
The patients received one of two chemotherapy regimens for a minimum of six cycles, provided their disease was not progressing: a) cyclophosphamide and doxorubicin or epirubicin (AC), if patients have not received anthracycline therapy in the adjuvant setting, or b) paclitaxel (T, TAXOL®), if patients have received any anthracycline therapy in the adjuvant setting. […] Subsequent doses of the antibody were given immediately before chemotherapy administration, if the initial dose of the antibody was well tolerated. If the first dose of the antibody was not well tolerated, subsequent infusions continued to precede chemotherapy administration by 24 hours. Patients were permitted to continue receiving chemotherapy beyond six cycles if, in the opinion of the treating physician, they were continuing to receive treatment benefit.
Cyclophosphamide (600 mg/m^2) was given either by iv push over a minimum period of 3 minutes or by infusion over a maximum period of 2 hours.
Doxorubicin (60 mg/m^2) or epirubicin (75 mg/m^2) were given either by slow iv push over a minimum period of 3-5 minutes or by infusion over a maximum period of 2 hours, according to institutional protocol.
All patients receiving paclitaxel were premedicated with dexamethasone (or its equivalent) 20 mg×2, administered orally 12 and 6 hours prior to paclitaxel; diphenhydramine (or its equivalent) 50 mg, iv, administered 30 minutes prior to paclitaxel, and […] (or another H2 blocker) 300 mg, iv, administered 30 minutes prior to paclitaxel.
Progressive disease also includes those instances when new lesions have appeared.
Complete Response Disappearance of all radiographically and/or visually apparent tumor for a minimum of 4 weeks. Skin and chest wall complete responses had to be confirmed by biopsy. […]
Time to disease progression (TTP) was calculated from the beginning of therapy to progression. Confidence limits for response rates were calculated using the exact method for a single proportion. […]

Series [2] relates to BT-474M1. Put plainly: nude mouse xenograft tumor volume, i.v. bolus versus s.c. bolus (Example 4). Format: in vivo. The note with it: Group 1, IV Control. As to the method: (§1) This study was set up as disclosed herein in Example 3 for the comparison of intravenous bolus and subcutaneous infusion delivery. A sustained release estrogen implant was inserted subcutaneously one day before tumor cell innoculation as described in Example 3. Six days after tumor cell innoculation, the initial tumor measurement was performed. […] Animals were dosed once weekly for 4 weeks.
(§2) The mice were treated according to the information in Table 4 and using the techniques disclosed in Example 3. […] The control E25 antibody serum concentration was determined according to standard immunoassay techniques.
For this study, efficacy was measured as a decrease in tumor volume. Tumor volume was measured twice weekly.

Series [3] in a line: serum antibody concentration in xenograft mice (Example 3). It is filed as in vivo, mouse. The note with it: control s.c. infusion.
Procedure: (§3) Animals were exposed to estrogen by subcutaneous sustained release estrogen pellet 9 days before the start of dosing to promote growth of grafted tumor cells. The animals were inoculated with the BT474M 1 cells 8 days before the beginning of treatment and tumors were allowed to grow. […] The study groups were treated until day 35. […] Tumor volumes were measured two days before dosing began and twice per week from day 6 to day 35 in the study for which data is tabulated below. Tumors were measured in three dimensions and volumes were expressed in mm^3. Efficacy was determined by a statistical comparison (ANOVA) of tumor volumes of test animals relative to untreated control animals.
In series [4] the test system is BT-474M1. Put plainly: nude mouse xenograft tumor volume, i.v. bolus versus s.c. infusion (Example 3). It is filed as in vivo. The following applies: control s.c. infusion.
Procedure: A study in a nude mouse xenograft model, which incorporates a human breast cancer cell line that naturally overexpresses the HER2 gene (BT-474M1, derived from BT-474 cells, ATCC Accession number HTB-20), comparing tumor volume as a function of i.v. bolus versus s.c. infusion was performed as follows. In the first study athymic nude nu nu 7-9 week old female mice were obtained from Taconic Inc (Germantown, N.Y.). To initiate tumor development, each mouse was inoculated subcutaneously with 3×10^6 BT474M1 cells suspended in Matrigel™. When tumor nodules reached a volume of approximately 100 mm^3, animals were randomized to 4 treatment groups.
as §3
Series [5] is described as follows: serum antibody concentration in xenograft mice (Example 4). Format: in vivo, mouse. The following applies: Group 1, IV, MD 4 mg/kg. The procedure: as §1, §2
Where [6] appears, read: median follow-up 10.5 months, H 4 mg/kg then 2 mg/kg weekly i.v.

Turning to `CC(=O)O[C@H]1C(=O)[C@@]2(C)[C@H]([C@H](OC(=O)c3ccccc3)[C@]3(O)C[C@H](OC(=O)[C@H](O)[C@@H](NC(=O)c4ccccc4)c4ccccc4)C(C)=C1C3(C)C)[C@]1(OC(C)=O)CO[C@@H]1C[C@@H]2O` [T, paclitaxel], the “syndrome of myocardial dysfunction” value in series [1] (Grade ¾) was 0%. The “AE(%) overall severe adverse events” value in series [1] (median follow-up 10.5 months) came out at 59%. In addition, in series [1] (setting [6]), the “RR(%)” value was determined as 25.0% and the “TTP(months)” value amounted to 4.2 months.

In the case of “rhu MAb E25: nonrelevant antibody E25 (non-specific for HER2 receptor, but a member of the monoclonal IgG class)”, the “Tumor Vol. Day 28, mm^3” value in the series on BT-474M1 [2] is on record as 1530 mm^3. Further, in the series with BT-474M1 [2], the “Tumor Vol. Day 31, mm^3” value came to 1630 mm^3. In addition, the “Tumor Vol. Day 6, mm^3” value in the series with BT-474M1 [2] (LD 8, MD 4 mg/kg/week, initial measurement before first dose) amounted to 321 mm^3. Further, the “Day 6-Day 31 Area Under Curve Tumor Vol., mm^3” value in the series on BT-474M1 [2] (Day 17 excluded) worked out at 13600 mm^3. Besides, the “HERCEPTIN Serum Conc. (μg/ml), Day 27” value in series [3] was 4.16 ± 1.94 µg/mL. The “Tumor Volume (area under curve) Day 6-Day 35” value in the series on BT-474M1 [4] is listed as 5650 ± 4700. Further, the “Tumor Volume (mm^3), Day 35” value in the series on BT-474M1 [4] (IV LD 2.20 mg/kg, infusate […]) is given as 764 ± 700 mm^3. The “Serum Concentration, Mean” value amounted to 0 µg/mL in series [5] (Day 0), 25.9 µg/mL in series [5] (Day 7), 34.6 µg/mL in series [5] (Day 14) and 38.5 µg/mL in series [5] (Day 21).
